The text below walks through data of patent US10189777B2, “Benzenesulfonamido and related compounds for use as agonists of RORγ and the treatment of disease” (Lycera Corporation, priority 2014, dated 2019).

The target of experiment [1] is T1, Gal4-RORγ-LBD (Homo sapiens, UniProt P51449).
T1 construct: expressed in transfected cells
T1 sequence (P51449 269-508 limits assumed): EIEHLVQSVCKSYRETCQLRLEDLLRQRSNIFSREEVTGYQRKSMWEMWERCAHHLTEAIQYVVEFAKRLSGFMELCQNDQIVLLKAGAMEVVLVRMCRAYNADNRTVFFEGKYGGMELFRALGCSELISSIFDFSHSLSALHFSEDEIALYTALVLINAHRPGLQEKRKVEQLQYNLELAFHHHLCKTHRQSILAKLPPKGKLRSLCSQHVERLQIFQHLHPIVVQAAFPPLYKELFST
Description: Gal4-RORγ Luciferase Reporter Assay in HEK-293T Cells. In kind it is cell-based. The note with it: for EC50: HEK-293 cells, with 2 μM ursolic acid, incubated overnight, luciferase readout; for Gal4-RORγ Assay Max Response: upper plateau of 4-parameter fit, luciferase signal in the absence of ursolic acid or test compound defined at 100. The procedure:
(§1) Exemplary compounds from the above Examples were tested for ability to increase RORγ activity using (i) a RORγ-Ligand Binding Domain (LBD) TR-FRET Assay, and (ii) a Gal4-RORγ Luciferase Reporter Assay in HEK-293T Cells. Assay procedures and results are described below.
Part II—Procedures for Gal4-RORγ Luciferase Reporter Assay in HEK-293T Cells
Transfection of HEK-293 Cells
In the following protocol, HEK-293 cells were transfected with a construct comprising the Gal4 DNA binding domain fused to the ligand binding domain of RORγ (Gal4-RORγ-LBD) in a pcDNA3.1neo plasmid, and also with a reporter construct comprising pGL4.31 Gal4-luciferase (Promega). Control cells were prepared similarly using empty pcDNA3.1neo and pGL4.31 vectors.
Trans-IT reagent (Mirus, 60 μL) at room temperature was added drop wise to OptiMEM (Invitrogen, 1.5 ml). This reagent mixture was mixed by inversion then incubated for 5 to 30 minutes at room temperature. It then was added to a solution of both expression vectors (5 μg each), mixed, and incubated at room temperature for about 20 minutes. HEK-293 cells were harvested from incubation flasks by removing the media, treating with TrypLE Express (Invitrogen), and incubating until the cells detached from the bottom of the flask (approximately 2-5 minutes). 10 Million cells were collected by centrifugation and re-suspended in 10 mL of Dulbecco's Modified Eagle Medium, High Glucose (DMEM, Invitrogen) containing 10% Fetal Bovine Serum and 100 IU each of penicillin and streptomycin. The re-suspended cells and the transfection mixture were added to a T75 flask, mixed and incubated overnight at 37° C. and 5% CO2.
The cells were harvested as described above, counted, and centrifuged to obtain the desired number of cells, then re-suspended in complete growth media at 0.75×10^6 cells/mL. The RORγ antagonist, ursolic acid, was added to the cells at a final concentration of 2 μM. Cells were plated at 20 μL of cell suspension/well (10,000-15,000 cells/well) in white tissue culture treated 384 well plates. Test compounds were dissolved at 10 mM in DMSO then diluted into complete growth medium to 5× the final intended test concentration. These drug stock solutions, 5 μL/well were added to the tissue culture plate. The final DMSO concentration was 0.2%. The plates were briefly centrifuged then incubated overnight at 37° C. and 5% CO2. To conduct the assay, the tissue culture plates were allowed to equilibrate to room temperature and One-Glo luciferase reagent (Promega, 25 μL/well) was added. The plates were briefly centrifuged then incubated at room temperature for 10 minutes. The luciferase intensity was read on an Envision plate reader (Perkin Elmer). RORγ activity was determined relative to controls and plotted as a function of test compound concentration using PRISM (GraphPad) to determine a 50% effective concentration (EC50). The luciferase signal in the absence of ursolic acid or test compound is defined at 100. The Max Response is the upper plateau in the signal as determined by line-fit using a 4-parameter logistic model in PRISM (GraphPad).

Experiment [2] addresses T2, HIS-tagged RORγ-LBD protein (Homo sapiens, UniProt P51449).
T2 construct: made in house; host or cells: SF9 cells, baculovirus expression system; the lysate was used
T2 sequence (P51449 269-508 limits assumed): T1 sequence (P51449 269-508 limits assumed)
Description: RORγ-Ligand Binding Domain (LBD) TR-FRET Assay. The note with it: for TR-FRET Assay Max Response: upper plateau of 4-parameter fit, signal in the absence of ursolic acid or test compound set as 100; for EC50: with 2 μM RORγ antagonist ursolic acid, biotinylated SRC1 LXXLL peptide, ratio 665 nm/615 nm. In kind it is biochemical. The procedure: as §1
Part I—Procedures for RORγ-Ligand Binding Domain TR-FRET Assay
HIS-tagged RORγ-LBD protein was expressed in SF9 cells using a baculovirus expression system. The lysate was diluted in assay buffer (50 mM Tris pH 7.0, 50 mM KCl, 1 mM EDTA, 0.1 mM DTT, 0.01% BSA) to obtain RORγ-LBD final concentration of −3 nM in a 384-well assay plate (need to titrate for each batch of protein).
A stock of biotinylated-LXXLL peptide from coactivator SRC1 (Biotin-[…]) was prepared in assay buffer and added to each well (200 nM final concentration). A solution of Europium tagged anti-HIS antibody (0.6 nM final concentration) and APC-conjugated streptavidin (30 nM final concentration) were also added to each well. RORγ antagonist ursolic acid was also included at a final concentration of 2 μM. Compounds were diluted in DMSO and further diluted in assay buffer with a final DMSO concentration at 1%.
The final assay mixture was incubated overnight at 4° C. or 2 hours at room temperature, and the fluorescence signal was measured on an Envision plate reader: (Excitation filter=340 nm; APC emission=665 nm; Europium emission=615 nm; dichroic mirror=D400/D630; delay time=100 μs, integration time=200 μs). 50% Effective concentration (EC50) values for test compounds were calculated from the quotient of the fluorescence signal at 665 nm divided by the fluorescence signal at 615 nm. The quotient of the fluorescence signals in the absence of ursolic acid or test compound is set as 100. Max Response is defined as the upper plateau in the signal as determined by line-fit using a 4-parameter logistic model in PRISM (GraphPad).
On the technique in general: Time-resolved FRET reads energy transfer from a long-lived donor to a nearby acceptor.

SMILES strings stand for the structures.

In the case of `CCN(c1cccc(NCc2ccccc2Cl)c1)S(=O)(=O)c1cccc(C(F)(F)F)c1`, in experiment [1], the EC50 was 500 to 5000 nM and the “Gal4-RORγ Assay Max Response” value is recorded as “** (The symbol “**” indicates a value in the range of greater than 90 to 150)”. Further, in experiment [2], the “TR-FRET Assay Max Response” value is recorded as “**** (The symbol “****” indicates a value greater than 200)” and the EC50 was under 500 nM.
Molecule `CCN(c1cccc(OCc2c(F)cccc2OC)c1)S(=O)(=O)c1cccc(C(F)(F)F)c1` returned an EC50 in experiment [1] of over 10000 nM. In addition, in experiment [2], the “TR-FRET Assay Max Response” value is listed as “**** (The symbol “****” indicates a value greater than 200)” and the EC50 is under 500 nM.
Consider `CCOc1nn(CC)cc1S(=O)(=O)N(CC)c1cccc(OCc2c(F)cccc2Cl)c1`, for which, in experiment [1], the EC50 lay in the range of 500 to 5000 nM and the “Gal4-RORγ Assay Max Response” value is listed as “** (The symbol “**” indicates a value in the range of greater than 90 to 150)”. Further, in experiment [2], the “TR-FRET Assay Max Response” value is recorded as “**** (The symbol “****” indicates a value greater than 200)” and the half-maximal effective concentration (EC50) fell in the range of 500 to 5000 nM.
In the case of `CCN(c1cccc(OC2CCc3cccc(F)c32)c1)S(=O)(=O)c1cccc(C(F)(F)F)c1` (stereo not drawn), in experiment [1], the EC50 was over 10000 nM and the “Gal4-RORγ Assay Max Response” value is given as “**** (The symbol “****” indicates a value greater than 200)”. For the same molecule, in experiment [2], the “TR-FRET Assay Max Response” value is “*** (The symbol “***” indicates a value in the range of greater than 150 to 200)” and the EC50 was under 500 nM.
In the same order, the values of `CCN(c1cccc(OCCc2c(Cl)cccc2Cl)c1)S(=O)(=O)c1cccc(C(F)(F)F)c1` are 500 to 5000 nM, “** (The symbol “**” indicates a value in the range of greater than 90 to 150)”, “**** (The symbol “****” indicates a value greater than 200)” and 500 to 5000 nM.
Taken in the same sequence, the figures for `CCC(c1ccc(OCc2c(F)cccc2Cl)cc1)S(=O)(=O)c1cccc(C(F)(F)F)c1` (stereo not drawn) were under 500 nM, “** (The symbol “**” indicates a value in the range of greater than 90 to 150)”, “*** (The symbol “***” indicates a value in the range of greater than 150 to 200)” and under 500 nM.
Consider `CCC(c1cccc(OCc2ccccc2)c1)S(=O)(=O)c1cccc(C(F)(F)F)c1` (stereo not drawn), for which, in experiment [1], the EC50 lay in the range of 500 to 5000 nM and the “Gal4-RORγ Assay Max Response” value is on record as “* (The symbol “*” indicates a value in the range of 70 to 90)”. Moreover, in experiment [2], the “TR-FRET Assay Max Response” value is recorded as “** (The symbol “**” indicates a value in the range of greater than 90 to 150)” and the EC50 lay within 5000 to 10000 nM.
Taken in the same sequence, the figures for `CCN(c1cccc(OCCc2c(F)cccc2Cl)c1)S(=O)(=O)c1cccc(C(F)(F)F)c1` were over 10000 nM, “** (The symbol “**” indicates a value in the range of greater than 90 to 150)”, “*** (The symbol “***” indicates a value in the range of greater than 150 to 200)” and 500 to 5000 nM.
In the same order, the values of `CCN(c1cccc(OCc2c(F)cccc2C(F)(F)F)c1)S(=O)(=O)c1cccc(C(F)(F)F)c1` are 500 to 5000 nM, “** (The symbol “**” indicates a value in the range of greater than 90 to 150)”, “**** (The symbol “****” indicates a value greater than 200)” and under 500 nM.
In turn, `CCOc1nn(CC)cc1S(=O)(=O)N(CC)c1cccc(OC2CCc3ccccc32)c1` (stereo not drawn) registered an EC50 in experiment [1] of over 10000 nM. Further, in experiment [2], the “TR-FRET Assay Max Response” value is “**** (The symbol “****” indicates a value greater than 200)” and the EC50 is 500 to 5000 nM.
Take `CCN(c1cccc(OCc2ccccc2Cl)c1)S(=O)(=O)c1cccc(C(F)(F)F)c1`: in experiment [1], the EC50 lay in the range of 500 to 5000 nM and the “Gal4-RORγ Assay Max Response” value was “** (The symbol “**” indicates a value in the range of greater than 90 to 150)”. Further, in experiment [2], the “TR-FRET Assay Max Response” value was “**** (The symbol “****” indicates a value greater than 200)” and the EC50 lay in the range of 500 to 5000 nM.

In general, EC50 refers to the concentration at which the effect is half-maximal.
